Reference: US6583180B2, “Glucocorticoid receptor modulators” (Abbott Laboratories, priority 2001, dated 2003)

Target: T1, Human glucocorticoid receptors (Homo sapiens, UniProt P04150)
T1 construct: made in house; host or cells: Sf9 insect cells, recombinant baculovirus (BAC-TO-BAC)
T1 sequence (P04150 1-777): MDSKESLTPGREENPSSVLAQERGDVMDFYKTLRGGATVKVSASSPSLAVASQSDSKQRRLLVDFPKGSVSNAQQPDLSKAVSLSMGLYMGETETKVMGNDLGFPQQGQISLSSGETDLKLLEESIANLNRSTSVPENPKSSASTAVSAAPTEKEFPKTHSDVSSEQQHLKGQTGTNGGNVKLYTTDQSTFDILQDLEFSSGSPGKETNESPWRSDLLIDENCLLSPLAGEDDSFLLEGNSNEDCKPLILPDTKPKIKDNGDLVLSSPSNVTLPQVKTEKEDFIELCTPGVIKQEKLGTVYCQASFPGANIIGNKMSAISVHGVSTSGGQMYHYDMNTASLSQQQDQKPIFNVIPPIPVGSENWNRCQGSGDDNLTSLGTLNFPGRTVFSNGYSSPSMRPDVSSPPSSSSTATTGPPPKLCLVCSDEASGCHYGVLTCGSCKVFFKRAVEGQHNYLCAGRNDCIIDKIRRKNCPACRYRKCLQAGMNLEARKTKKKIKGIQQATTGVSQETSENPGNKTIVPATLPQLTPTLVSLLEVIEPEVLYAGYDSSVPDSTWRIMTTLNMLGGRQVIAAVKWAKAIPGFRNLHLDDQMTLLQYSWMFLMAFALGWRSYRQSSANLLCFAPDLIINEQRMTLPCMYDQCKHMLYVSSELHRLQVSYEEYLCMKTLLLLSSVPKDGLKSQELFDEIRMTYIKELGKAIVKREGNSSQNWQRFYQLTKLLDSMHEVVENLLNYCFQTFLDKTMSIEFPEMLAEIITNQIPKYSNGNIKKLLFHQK
Assay: Radioligand filter binding assay, displacement of 3[H]-dexamethasone from hGR
Details: read-out: GR Binding (% Inhibition at 1.7 μM)
From the text: Dexamethasone hereafter referred to as dex was purchased from SIGMA. […] Human glucocorticoid receptors were extracted from Sf9 cells infected with a recombinant baculovirus transfer vector containing the cloned hGR genes. Recombinant baculovirus was generated utilizing the BAC-TO-BAC expression system (Life Technologies) in accordance to instruction from the supplier. The hGR coding sequences were cloned into a baculovirus transfer vector by standard techniques. The recombinant baculoviruses expressing hGR were amplified and used to infect Sf9 cells. Infected cells were harvested 48 hrs post infection. […] The concentration of hGR in the extract was measured as specific ^3[H]-dex binding with the G25-assay as described in J. Steroid Biochem. Molec. […] The extract was aliquoted and stored at −70° C.
The filter binding assay: Dilution series of the test compounds and dex as reference were made from 10 mM (1 mM dex) stock solutions in DMSO. 10 μl of the dilutions was added in duplicates to the wells. The cell extracts were diluted 10 fold in EPMo+MTG buffer (1 mM EDTA, HPO4 20 mM (pH8), 6 mM MTG). […] 110 μl of the diluted ^3[H]-dex were added to the wells. The final concentration of hGR in the experiment was estimated to 1 nM. All preparations were made in […] on ice and with +4° C. temperated buffers. The plates were incubated over night at +4° C. (15-20 hours).
The incubation was stopped by filtration through GF/B filter on the Tomtec Cellharvester. The filtration on the Tomtec Cellharvester was programmed as follows: 1) Preparation before filtration with EP buffer (1 mM EDTA 20 mM HPO4 (pH8)) 2×[Wash/Asp 0.6 sec., Asp 0.5 sec.]; 2) Prewet of GF/B filter with EP+PEI buffer (EP buffer, 0.3% Polyethylenimine) [Asp 0.8 sec.]; 3) Filtration/harvesting of the 96-well incubation plate 3×[Wash/Asp 0.6 sec., Asp 0.5 sec.]. The GF/B filter was dried for at least 1 hour at 65° C. A MeltiLex scintillation wax was melted onto the filter with the Microsealer. The filter was placed in a samplebag, which was thereafter trimmed with scissors to fit the filter cassette. The cassette were placed in the Microbeta and measured for 1 min/position, returning ccpm (corrected counts per minute).
b=((bmax−bmin)/(1+(I/IC50)^S))+bminI
The Microbeta-instrument generates the mean cpm (counts per minute) value/minute and corrects for individual variations between the detectors thus generating corrected cpm values.

inhibition at 1.7 µM [%] | SMILES
92.9 | Cc1c(NS(C)(=O)=O)cccc1N(Cc1ccccc1)Cc1ccc(C(=O)c2ccc(OC[C@H](O)CO)cc2)cc1 [Example 250, N-(3-{benzyl[4-(4-{[(2R)-2,3-dihydroxypropyl]oxy}benzoyl)benzyl]amino}-2-methylphenyl)methanesulfonamide]
94.2 | Cc1c(NS(C)(=O)=O)cccc1N(Cc1ccccc1)Cc1ccc(Oc2ccc(OCCCC(=O)NCC(=O)O)cc2)cc1 [Example 251, N-[4-(4-{4-[(benzyl{2-methyl-3-[(methylsulfonyl)amino]phenyl}amino)methyl]phenoxy}phenoxy)butanoyl]glycine]
91.9 | Cc1c(NS(C)(=O)=O)cccc1N(Cc1ccccc1)Cc1ccc(Oc2ccc(OCCCC(=O)NCCC(=O)O)cc2)cc1 [Example 252, N-[4-(4-{4-[(benzyl{2-methyl-3-[(methylsulfonyl)amino]phenyl}amino)methyl]phenoxy}phenoxy)butanoyl]-beta-alanine]
92.8 | Cc1c(NS(C)(=O)=O)cccc1N(Cc1ccccc1)Cc1ccc(Oc2ccc(OCCCC(=O)N(C)CC(=O)O)cc2)cc1 [Example 254, N-[4-(4-{4-[(benzyl{2-methyl-3-[(methylsulfonyl)amino]phenyl}amino)methyl]phenoxy}phenoxy)butanoyl]-N-methylglycine]
93.6 | Cc1c(NS(C)(=O)=O)cccc1N(Cc1ccccc1)Cc1ccc(Oc2ccc(OCCCC(=O)N[C@@H](CCC(=O)O)C(=O)O)cc2)cc1 [Example 255, N-[4-(4-{4-[(benzyl{2-methyl-3-[(methylsulfonyl)amino]phenyl}amino)methyl]phenoxy}phenoxy)butanoyl]-L-glutamic acid]
92.6 | Cc1c(NS(C)(=O)=O)cccc1N(Cc1ccccc1)Cc1ccc(Oc2ccc(OCCCC(=O)N[C@H](C(=O)O)C(C)C)cc2)cc1 [Example 256, N-[4-(4-{4-[(benzyl{2-methyl-3-[(methylsulfonyl)amino]phenyl}amino)methyl]phenoxy}phenoxy)butanoyl]-L-valine]
90.6 | Cc1c(NS(C)(=O)=O)cccc1N(Cc1ccccc1)Cc1ccc(Oc2ccc(OCCCC(=O)Nc3cc(C(=O)O)n(C)c3)cc2)cc1 [Example 257, 4-{[4-(4-{4-[(benzyl{2-methyl-3-[(methylsulfonyl)amino]phenyl}amino)methyl]phenoxy}phenoxy)butanoyl]amino}-1-methyl-1H-pyrrole-2-carboxylic acid]
91.6 | Cc1c(NS(C)(=O)=O)cccc1N(Cc1ccccc1)Cc1ccc(Oc2ccc(OCCCC(=O)N[C@@H](CO)C(=O)O)cc2)cc1 [Example 258, N-[4-(4-{4-[(benzyl{2-methyl-3-[(methylsulfonyl)amino]phenyl}amino)methyl]phenoxy}phenoxy)butanoyl]-L-serine]
91.2 | CC[C@H](C)[C@H](NC(=O)CCCOc1ccc(Oc2ccc(CN(Cc3ccccc3)c3cccc(NS(C)(=O)=O)c3C)cc2)cc1)C(=O)O [Example 259, N-[4-(4-{4-[(benzyl{2-methyl-3-[(methylsulfonyl)amino]phenyl}amino)methyl]phenoxy}phenoxy)butanoyl]-L-isoleucine]
91.3 | Cc1c(NS(C)(=O)=O)cccc1N(Cc1ccccc1)Cc1ccc(Oc2ccc(OCCCC(=O)N[C@@H](CCC(N)=O)C(=O)O)cc2)cc1 [Example 260, N˜2˜-[4-(4-{4-[(benzyl{2-methyl-3-[(methylsulfonyl)amino]phenyl}amino)methyl]phenoxy}phenoxy)butanoyl]-L-glutamine]
91.5 | Cc1c(NS(C)(=O)=O)cccc1N(Cc1ccccc1)Cc1ccc(Oc2ccc(OCCCCC(=O)NCC(=O)O)cc2)cc1 [Example 261, N-[5-(4-{4-[(benzyl{2-methyl-3-[(methylsulfonyl)amino]phenyl}amino)methyl]phenoxy}phenoxy)pentanoyl]glycine]
